For the assay, the target named is T1, K-Ras G12C (Homo sapiens, UniProt P01116, G12C).
T1 construct: This protein contained 188 amino acids in total, including an N-terminal 6-Histidine tag; made in house; host or cells: E. coli BL21
Briefly: CAF assay (% CAF; method in Example 7, not in this part). It counts as binding. The conditions noted are these: for % CAF 10 uM @ 60 min: Table 2a.

Regarding `C=CC(=O)N1CCN(c2nc(=O)n3c4c(c(-c5ccc(F)cc5F)c(C(F)(F)F)cc24)SC[C@@H]3COC)CC1` (atropisomer, axis not shown) [Example 579, (3S,10S)-7-(4-acryloylpiperazin-1-yl)-10-(2,4-difluorophenyl)-3-(methoxymethyl)-9-(trifluoromethyl)-2,3-dihydro-5H-[1,4]thiazino[2,3,4-ij]quinazolin-5-one], the “% CAF @ 10 uM, 1h” value (10 uM compound, 1 h incubation) came out at 96.9%.

`C=CC(=O)N1C[C@H](C)N(c2nc(=O)n3c4c(c(-c5ccc(F)cc5F)c(C(F)(F)F)cc24)SC[C@@H]3CN2CCN(C3CC3)CC2)C[C@H]1C` (single isomer, unassigned) [Example 580]: under “10 uM compound, 1 h incubation”, the “% CAF @ 10 uM, 1h” value is reported as 91.5%. Turning to `C=CC(=O)N1C[C@H](C)N(c2nc(=O)n3c4c(c(-c5ccc(F)cc5F)c(C(F)(F)F)cc24)SC[C@@H]3CN2CCN(C3CC3)CC2)C[C@H]1C` (single isomer, unassigned) [Example 581], the “% CAF @ 10 uM, 1h” value (10 uM compound, 1 h incubation) stood at 97.4%.

With `C=CC(=O)N1CCN(c2nc(=O)n3c4c(c(-c5ccc(F)cc5F)c(C(F)(F)F)cc24)SC[C@@H]3CN2CCN(CC(F)F)CC2)[C@@H](C)C1` [Example 19, (3S)-7-((S)-4-acryloyl-2-methylpiperazin-1-yl)-3-((4-(2,2-difluoroethyl)piperazin-1-yl)methyl)-10-(2,4-difluorophenyl)-9-(trifluoromethyl)-2H-[1,4]thiazino[2,3,4-ij]quinazolin-5(3H)-one], for the setting “10 μM, 1 h, Table 4”, the “% CAF @ 10 μM, 1 h” value is given as 96%. `C=CC(=O)N1CCN(c2nc(=O)n3c4c(c(-c5cc(C6CC6)ccc5F)c(Cl)cc24)SCC3)[C@@H](C)C1` [Example 62a, 7-((S)-4-acryloyl-2-methylpiperazin-1-yl)-9-chloro-10-(5-cyclopropyl-2-fluorophenyl)-2,3-dihydro-5H-[1,4]thiazino[2,3,4-ij]quinazolin-5-one]: for the setting “10 uM”, the “% CAF 10 uM @ 60 min” value is recorded as 67%.

As for `C[C@H]1CN(C(=O)/C=C/C(F)F)CCN1c1nc(=O)n2c3c(c(-c4cc(F)cc(Cl)c4)c(Cl)cc13)SCC2` [Example 63, (S,E)-9-chloro-10-(3-chloro-5-fluorophenyl)-7-(4-(4,4-difluorobut-2-enoyl)-2-methylpiperazin-1-yl)-2,3-dihydro-5H-[1,4]thiazino[2,3,4-ij]quinazolin-5-one], the “% CAF 10 uM @ 60 min” value (10 uM) stood at 75%. For the same compound, the “% CAF @ 10 uM, 1h” value (10 uM, 1 h, Table 3) was determined as 67%.

On to `C=C(F)C(=O)N1CCN(c2nc(=O)n3c4c(c(-c5cc(F)cc(Cl)c5)c(Cl)cc24)SCC3)[C@@H](C)C1` [Example 64, (S)-9-chloro-10-(3-chloro-5-fluorophenyl)-7-(4-(2-fluoroacryloyl)-2-methylpiperazin-1-yl)-2,3-dihydro-5H-[1,4]thiazino[2,3,4-ij]quinazolin-5-one], for which the “% CAF 10 uM @ 60 min” value (10 uM) was found to be 3%. The “% CAF @ 10 uM, 1h” value (10 uM, 1 h, Table 3) is 75%.

`C[C@H]1CN(C(=O)/C=C/C(F)(F)F)CCN1c1nc(=O)n2c3c(c(-c4cc(F)cc(Cl)c4)c(Cl)cc13)SCC2` [Example 65]: the “% CAF 10 uM @ 60 min” value (10 uM) turned out to be 70%. Further, the “% CAF @ 10 uM, 1h” value (10 uM, 1 h, Table 3) is 3%. For `C=CC(=O)N1CCN(c2nc(=O)n3c4c(c(-c5cc(F)cc(F)c5)c(Cl)cc24)SCC3)[C@@H](C)C1` [Example 66, (S)-7-(4-acryloyl-2-methylpiperazin-1-yl)-9-chloro-10-(3,5-difluorophenyl)-2,3-dihydro-5H-[1,4]thiazino[2,3,4-ij]quinazolin-5-one] the same measures were 91% and 70%.

With `C[C@H]1CN(C(=O)/C=C/C(F)F)CCN1c1nc(=O)n2c3c(c(-c4cc(F)cc(F)c4)c(Cl)cc13)SCC2` [Example 67, (S,E)-9-chloro-7-(4-(4,4-difluorobut-2-enoyl)-2-methylpiperazin-1-yl)-10-(3,5-difluorophenyl)-2,3-dihydro-5H-[1,4]thiazino[2,3,4-ij]quinazolin-5-one], where the note is “10 uM”, the “% CAF 10 uM @ 60 min” value is listed as 87%. Also, the “% CAF @ 10 uM, 1h” value (10 uM, 1 h, Table 3) turned out to be 91%.

(Values after patent US20230107642A1 (Erasca, Inc., priority 2020, published 2023).)
